Key:
[1] = test system: TGF-β-stimulated SMAD3 phosphorylation in BEAS-2B cells; assay: Cellular ALK5 potency assay, inhibition of TGF-β stimulated pSMAD3 formation in BEAS-2B cells; type: cell-based; conditions: Homo sapiens; inhibition of TGF-β stimulated pSMAD3 formation, BEAS-2B cells; read-out: BEAS2B pIC50 (converted)
Summary of the method: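 Cells seeded overnight; rinse with supplemented HBSS; compound 1 h at 37 °C; TGF-β 10 ng/mL final, 30 min; lyse; AlphaLISA acceptor and detector beads 2 h apart, read next day. Potency expressed as pIC50.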

[2] = biological target: T1, recombinant human ALK5 (TGF-βR1) protein (Homo sapiens, UniProt P36897); assay: Biochemical ALK5 (TGF-βR1) assay to measure pKi (LANCE Ultra ULight kinase assay); conditions: apparent pKi from pIC50 by Cheng-Prusoff, read-out: ALK5 pKi (converted)
T1 construct: purchased Life Technologies PR9075A
T1 sequence (P36897 34-503): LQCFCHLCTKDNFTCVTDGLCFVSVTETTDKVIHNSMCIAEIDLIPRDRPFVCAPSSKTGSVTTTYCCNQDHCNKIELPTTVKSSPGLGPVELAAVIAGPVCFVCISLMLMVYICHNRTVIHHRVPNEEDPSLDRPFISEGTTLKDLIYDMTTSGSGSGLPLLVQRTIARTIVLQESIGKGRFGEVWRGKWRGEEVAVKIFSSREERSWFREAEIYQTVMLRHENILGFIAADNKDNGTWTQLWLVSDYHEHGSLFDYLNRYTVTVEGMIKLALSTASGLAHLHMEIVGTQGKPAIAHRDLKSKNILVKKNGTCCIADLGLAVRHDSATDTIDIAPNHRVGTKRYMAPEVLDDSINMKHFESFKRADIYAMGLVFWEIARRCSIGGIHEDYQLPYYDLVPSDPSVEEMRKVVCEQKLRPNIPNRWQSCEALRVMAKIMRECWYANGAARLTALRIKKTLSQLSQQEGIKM
Summary of the method: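 Dose range 10 μM–25 pM; enzyme + compound 60 min RT; ATP added (5× stock 125 μM, 2 mM DTT); 60 min 37 °C; stop with EDTA + Eu anti-phospho-Topo IIα Thr1342 Ab; TR-FRET ex 320/340, em 665 nm. 4-param pIC50 → pKi (Cheng-Prusoff).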

Structure (SMILES)	IC50 [1]	Ki [2]
Cc1cccc(-c2[nH]ncc2-c2ccc3ncc(C(=O)OCCN4CCNCC4)cc3c2)n1 [Compound 876, 2-(piperazin-1-yl)ethyl 6-(5-(6-methylpyridin-2-yl)-1H-pyrazol-4-yl)quinoline-3-carboxylate]	< 20 nM	0.0398 to 0.316 nM
Cc1cccc(-c2[nH]cnc2-c2ccc3ncc(C(=O)OC[C@@H]4CCCNC4)cc3c2)n1 [Compound 877, (R)-piperidin-3-ylmethyl 6-(5-(6-methylpyridin-2-yl)-1H-imidazol-4-yl)quinoline-3-carboxylate]	25.1 to 158 nM	0.0398 to 0.316 nM
Cc1cccc(-c2[nH]cnc2-c2ccc3ncc(C(=O)O[C@H]4CCCNC4)cc3c2)n1 [Compound 878, (S)-piperidin-3-yl 6-(5-(6-methylpyridin-2-yl)-1H-imidazol-4-yl)quinoline-3-carboxylate]	25.1 to 158 nM	0.0398 to 0.316 nM
Cc1cccc(-c2[nH]cnc2-c2ccc3ncc(C(=O)O[C@H]4CCCC[C@@H]4N)cc3c2)n1 [Compound 879, (1S,2S)-2-aminocyclohexyl 6-(5-(6-methylpyridin-2-yl)-1H-imidazol-4-yl)quinoline-3-carboxylate]	25.1 to 158 nM	3.98 to 31.6 nM
Cc1cccc(-c2[nH]cnc2-c2ccc3ncc(C(=O)O[C@@H]4CCCC[C@H]4N)cc3c2)n1 [Compound 880, (1R,2R)-2-aminocyclohexyl 6-(5-(6-methylpyridin-2-yl)-1H-imidazol-4-yl)quinoline-3-carboxylate]	25.1 to 158 nM	0.398 to 3.16 nM
Cc1cccc(-c2[nH]cnc2-c2ccc3ncc(C(=O)O[C@@H]4CCCC[C@@H]4N)cc3c2)n1 [Compound 881, (1R,2S)-2-aminocyclohexyl 6-(5-(6-methylpyridin-2-yl)-1H-imidazol-4-yl)quinoline-3-carboxylate]	200 to 1260 nM	3.98 to 31.6 nM
Cc1cccc(-c2[nH]cnc2-c2ccc3ncc(C(=O)O[C@H]4CCCC[C@H]4N)cc3c2)n1 [Compound 882, (1S,2R)-2-aminocyclohexyl 6-(5-(6-methylpyridin-2-yl)-1H-imidazol-4-yl)quinoline-3-carboxylate]	25.1 to 158 nM	3.98 to 31.6 nM
Cc1cccc(-c2[nH]cnc2-c2ccc3ncc(C(=O)OC[C@@H]4CCCCN4)cc3c2)n1 [Compound 883, (S)-piperidin-2-ylmethyl 6-(5-(6-methylpyridin-2-yl)-1H-imidazol-4-yl)quinoline-3-carboxylate]	25.1 to 158 nM	0.398 to 3.16 nM
Cc1cccc(-c2[nH]cnc2-c2ccc3ncc(C(=O)OC[C@H]4CCCCN4)cc3c2)n1 [Compound 884, (R)-piperidin-2-ylmethyl 6-(5-(6-methylpyridin-2-yl)-1H-imidazol-4-yl)quinoline-3-carboxylate]	25.1 to 158 nM	0.398 to 3.16 nM
Cc1cccc(-c2[nH]cnc2-c2ccc3ncc(-c4cc(C(=O)O[C@H]5CCNC5)cs4)cc3c2)n1 [Compound 885, [(3S)-pyrrolidin-3-yl] 5-[6-[5-(6-methyl-2-pyridyl)-1H-imidazol-4-yl]-3-quinolyl]thiophene-3-carboxylate]	25.1 to 158 nM	< 0.0316 nM
Cc1cccc(-c2[nH]cnc2-c2ccc3ncc(C(=O)OCCN4C[C@@H](C)N[C@@H](C)C4)cc3c2)n1 [Compound 886, 2-((3S,5R)-3,5-dimethylpiperazin-1-yl)ethyl 6-(5-(6-methylpyridin-2-yl)-1H-imidazol-4-yl)quinoline-3-carboxylate]	25.1 to 158 nM	0.0398 to 0.316 nM
Cc1cccc(-c2[nH]cnc2-c2ccc3ncc(C(=O)OCCN4CCCCC4)cc3c2)n1 [Compound 887, 2-(piperidin-1-yl)ethyl 6-(5-(6-methylpyridin-2-yl)-1H-imidazol-4-yl)quinoline-3-carboxylate]	25.1 to 158 nM	0.0398 to 0.316 nM
Cc1cccc(-c2[nH]cnc2-c2ccc3ncc(C(=O)OCCN4CC5(CCCNC5)C4)cc3c2)n1 [Compound 890, 2-(2,6-diazaspiro[3.5]nonan-2-yl)ethyl 6-(5-(6-methylpyridin-2-yl)-1H-imidazol-4-yl)quinoline-3-carboxylate]	200 to 1260 nM	0.398 to 3.16 nM
Cc1cccc(-c2[nH]cnc2-c2ccc3ncc(C(=O)OCCN4CC5(CCNCC5)C4)cc3c2)n1 [Compound 891, 2-(2,7-diazaspiro[3.5]nonan-2-yl)ethyl 6-(5-(6-methylpyridin-2-yl)-1H-imidazol-4-yl)quinoline-3-carboxylate]	200 to 1260 nM	0.0398 to 0.316 nM
Cc1cccc(-c2[nH]cnc2-c2ccc3ncc(C(=O)OCCN4CCC5(CC4)CNC5)cc3c2)n1 [Compound 892, 2-(2,7-diazaspiro[3.5]nonan-7-yl)ethyl 6-(5-(6-methylpyridin-2-yl)-1H-imidazol-4-yl)quinoline-3-carboxylate]	200 to 1260 nM	0.0398 to 0.316 nM
Cc1cccc(-c2[nH]cnc2-c2ccc3ncc(C(=O)OCCN4CC5(CNC5)C4)cc3c2)n1 [Compound 894, 2-(2,6-diazaspiro[3.3]heptan-2-yl)ethyl 6-(5-(6-methylpyridin-2-yl)-1H-imidazol-4-yl)quinoline-3-carboxylate]	200 to 1260 nM	0.398 to 3.16 nM
Cc1cccc(-c2[nH]cnc2-c2ccc3ncc(C(=O)OCCN4CCC5(CCNCC5)C4)cc3c2)n1 [Compound 896, 2-(2,8-diazaspiro[4.5]decan-2-yl)ethyl 6-(5-(6-methylpyridin-2-yl)-1H-imidazol-4-yl)quinoline-3-carboxylate]	200 to 1260 nM	0.0398 to 0.316 nM
Cc1cccc(-c2[nH]cnc2-c2ccc3ncc(C(=O)OCCCN4CCNCC4)cc3c2)n1 [Compound 897, 3-(piperazin-1-yl)propyl 6-(5-(6-methylpyridin-2-yl)-1H-imidazol-4-yl)quinoline-3-carboxylate]	25.1 to 158 nM	0.0398 to 0.316 nM
Cc1cccc(-c2[nH]cnc2-c2ccc3ncc(C(=O)OCCCN4C[C@@H](C)N[C@@H](C)C4)cc3c2)n1 [Compound 898, 3-((3S,5R)-3,5-dimethylpiperazin-1-yl)propyl 6-(5-(6-methylpyridin-2-yl)-1H-imidazol-4-yl)quinoline-3-carboxylate]	25.1 to 158 nM	0.0398 to 0.316 nM
Cc1cccc(-c2[nH]cnc2-c2ccc3ncc(C(=O)OCCCN4CC5(CCNCC5)C4)cc3c2)n1 [Compound 903, 3-(2,7-diazaspiro[3.5]nonan-2-yl)propyl 6-(5-(6-methylpyridin-2-yl)-1H-imidazol-4-yl)quinoline-3-carboxylate]	200 to 1260 nM	0.0398 to 0.316 nM
Cc1cccc(-c2[nH]cnc2-c2ccc3ncc(C(=O)OCCCN4CCC5(CC4)CNC5)cc3c2)n1 [Compound 904, 3-(2,7-diazaspiro[3.5]nonan-7-yl)propyl 6-(5-(6-methylpyridin-2-yl)-1H-imidazol-4-yl)quinoline-3-carboxylate]	200 to 1260 nM	0.0398 to 0.316 nM
Cc1cccc(-c2[nH]cnc2-c2ccc3ncc(-c4ccc(C(=O)O)s4)cc3c2)n1 [Compound 1005, 5-(6-(5-(6-methylpyridin-2-yl)-1H-imidazol-4-yl)quinolin-3-yl)thiophene-2-carboxylic acid]	1580 to 10000 nM	0.0398 to 0.316 nM
Cc1cccc(-c2[nH]cnc2-c2ccc3ncc(-c4ccc(C(=O)OC5CNC5)s4)cc3c2)n1 [Compound 1006, azetidin-3-yl 5-(6-(5-(6-methylpyridin-2-yl)-1H-imidazol-4-yl)quinolin-3-yl)thiophene-2-carboxylate]	25.1 to 158 nM	0.0398 to 0.316 nM
Cc1cccc(-c2[nH]cnc2-c2ccc3ncc(-c4ccc(C(=O)OCC5CNC5)s4)cc3c2)n1 [Compound 1007, azetidin-3-ylmethyl 5-(6-(5-(6-methylpyridin-2-yl)-1H-imidazol-4-yl)quinolin-3-yl)thiophene-2-carboxylate]	25.1 to 158 nM	0.0398 to 0.316 nM
Cc1cccc(-c2[nH]cnc2-c2ccc3ncc(-c4ccc(C(=O)O[C@H]5CCN(C)C5)s4)cc3c2)n1 [Compound 1008, (S)-1-methylpyrrolidin-3-yl 5-(6-(5-(6-methylpyridin-2-yl)-1H-imidazol-4-yl)quinolin-3-yl)thiophene-2-carboxylate]	25.1 to 158 nM	0.0398 to 0.316 nM
Cc1cccc(-c2[nH]cnc2-c2ccc3ncc(-c4ccc(C(=O)O[C@@H]5CCN(C)C5)s4)cc3c2)n1 [Compound 1009, (R)-1-methylpyrrolidin-3-yl 5-(6-(5-(6-methylpyridin-2-yl)-1H-imidazol-4-yl)quinolin-3-yl)thiophene-2-carboxylate]	25.1 to 158 nM	0.0398 to 0.316 nM
Cc1cccc(-c2[nH]cnc2-c2ccc3ncc(-c4ccc(C(=O)OC5CCNCC5)s4)cc3c2)n1 [Compound 1010, piperidin-4-yl 5-(6-(5-(6-methylpyridin-2-yl)-1H-imidazol-4-yl)quinolin-3-yl)thiophene-2-carboxylate]	25.1 to 158 nM	0.0398 to 0.316 nM
